# In patent publication US20120283316A1, “Delivery of Therapeutic Agents Using Oligonucleotide-Modified Nanoparticles As Carriers” (priority 2009, published 2012):
# Read-outs that look alike come from different tables or passages of the source.
# Experiments:
# MCF7 cells = experiment: MTT assay (cytotoxicity) in MCF7 cells; assay type: cell-based; conditions: Homo sapiens
# Protocol: (§1) MCF7, SKOV-3 and MES-SA/Dx5 cells were purchased from American Type Culture Collection (ATCC, Manassas, Va., USA). […] MCF7 cells were cultured in Eagle's Minimum Essential Medium (EMEM) supplemented with 10% fetal bovine serum (FBS) and 0.01 mg/ml bovine insulin. SKOV-3 and MES-SA/Dx5 cells were cultured using McCoy's 5A modified media supplemented with 10% FBS. All experiments were performed in the aforementioned cell-specific media in a 5% CO2 incubator at 37° C.
# (§2) Following 24 hours of growth, media was replaced with 200 μL of corresponding sample solutions, which were freshly prepared at varying concentrations in complete cell culture media. Cells in media containing 10% FBS with nothing added were used as controls. After 12 hours or 48 hours of treatment, cells were rinsed and cultured with fresh medium containing 0.5 mg/mL of MTT for an additional 3 hours. Following careful aspiration of MTT solution and media after MTT incubation, 200 μL of MTT solubilization solution was added to each well and thoroughly mixed. The optical density at 570 nm was measured using a Safire microplate reader (Tecan Systems, Inc., San Jose, Calif.). Background absorbance at 690 nm was subtracted. Values were expressed as a percentage of the control (incubated with media alone). All conditions were done in sextuplicate in two independent experiments for each cell line.
# [1] = system: SKOV-3 ovarian cancer cells; experiment: MTT assay (cytotoxicity) in SKOV-3 cells; assay type: cell-based; conditions: Homo sapiens, SK-OV-3, paclitaxel-equivalent concentration
# Protocol: MCF7, SKOV-3 and MES-SA/Dx5 cells were purchased from American Type Culture Collection (ATCC, Manassas, Va., USA). Media, Dulbecco's phosphate buffered saline (DPBS), and 0.25% trypsin/EDTA were purchased from Invitrogen (Carlsbad, Calif., USA). MCF7 cells were cultured in Eagle's Minimum Essential Medium (EMEM) supplemented with 10% fetal bovine serum (FBS) and 0.01 mg/ml bovine insulin. SKOV-3 and MES-SA/Dx5 cells were cultured using McCoy's 5A modified media supplemented with 10% FBS. All experiments were performed in the aforementioned cell-specific media in a 5% CO2 incubator at 37° C.
# as §2, with “Briefly, cells were seeded on 96-well plates for 24 hours before the assay at a density of 1.5×10^4 cells/well. Following” for “Following”, “Following careful aspiration of MTT solution and media after MTT incubation, 200 μL of MTT solubilization solution was added to each well and thoroughly mixed.” left out, “All conditions were done in sextuplicate in two independent experiments for each cell line.” left out
# MES-SA/Dx5 cells [2] = experiment: MTT assay (cytotoxicity) in paclitaxel-resistant MES-SA/Dx5 cells; assay type: cell-based, human
# Protocol: as §1, §2
# MES-SA/Dx5 cells [3] = experiment: Fluorescent TUNEL assay (apoptosis) in MES-SA/Dx5 cells; assay type: cell-based, human; conditions: MES-SA/Dx5, 48 hours, 100 nM paclitaxel or DNA strand
# Protocol: MCF7 and MES-SA/Dx5 cells were seeded on 0.17 mm thick coverslips in 12-well plates at a density of 2×10^5 cells/well for 24 hours prior to fluorescent TUNEL assay. Cells were treated with nothing, DNA-AuNPs at a DNA strand concentration of 100 nM (negative controls), 100 nM of free paclitaxel and compound 1 (positive controls), PTX-DNA-AuNPs at the equivalent paclitaxel concentrations of 50 nM and 100 nM (samples), respectively, for 48 hours. Live cells were rinsed and stained in accordance with instructions and materials for adherent cultured cells provided by Chemicon International ApopTag Plus Fluorescein In situ Apoptosis Detection Kit S7111 (Temecula, Calif.). ApopTag utilizes the terminal deoxynucleotidyl transferase (TdT) enzyme to amplify the fluorescein-conjugated anti-digoxigenin antibody, a secondary antibody towards digoxigenin-labeled nucleotide-labeled 30-OH termini on DNA fragments. Images were acquired on a Zeiss LSM 510 inverted microscope (computer controlled using Zeiss Zen software).
# MCF7 or MES-SA/Dx5 cells were incubated with drug-free DNA-AuNPs, free paclitaxel, compound 1 and PTX-DNA@AuNPs, respectively, at varying concentrations for 48 hours.
# [4] = Dynamic light scattering (DLS) hydrodynamic size and dispersion in PBS; assay type: physicochemical; conditions: 25 μM paclitaxel in PBS, DLS and TEM
# Protocol: PTX-DNA-AuNPs or DNA-AuNPs were resuspended in 200 uL PBS buffer with oligonucleotide strands of an equivalent concentration of 25 μM. Hydrodynamic size measurements were conducted using the Zetasizer Nano ZS (Malvern, Worcestershire, U.K.). The size measurements were performed at 25° C. at a 173° scattering angle in disposable micro cuvettes (minimum volume 40 μL, Malvern, Worcestershire, U.K.). The mean hydrodynamic diameter was determined by cumulative analysis. Transmission Electron Microscopy (TEM) was performed using a 200 kV Hitachi H-8100 TEM (EPIC, Northwestern University). Diluted PTX-DNA-AuNPs in deionized water were pipetted onto a commercial carbon TEM grid (Ted Pella Inc., Redding, Calif.). Upon air drying for 2 hours, samples were then observed within a Hitachi H-8100 TEM.
smiles,measurement,setting,value
CC(=O)O[C@H]1C(=O)[C@@]2(C)[C@H]([C@H](OC(=O)c3ccccc3)[C@]3(O)C[C@H](OC(=O)[C@H](O)[C@@H](NC(=O)c4ccccc4)c4ccccc4)C(C)=C1C3(C)C)[C@]1(OC(C)=O)CO[C@@H]1C[C@@H]2O [paclitaxel],IC50,"MCF7 cells; MCF7, 12 h incubation, paclitaxel-equivalent concentration, read-out: IC50 (nM Paclitaxel)",> 1000 nM
same,IC50,"MCF7 cells; MCF7, 12 hour incubation, read-out: IC50 value",> 1000 nM
same,IC50,"MCF7 cells; MCF7, 48 h incubation, paclitaxel-equivalent concentration, read-out: IC50 (nM Paclitaxel)",193 nM
same,IC50,"[1]; SKOV-3, 12 h incubation",176 nM
same,IC50,"[1]; SKOV-3, 48 h incubation",28.9 nM
same,viability at 0.2 µM,"MES-SA/Dx5 cells [2]; Homo sapiens, 48 h, MES-SA/Dx5, 2 days incubation, 200 nM drug concentration, % of control, read-out: cell viability",76%
same,IC50,"MES-SA/Dx5 cells [2]; Homo sapiens, MES-SA/Dx5, 12 h incubation, paclitaxel-equivalent concentration, read-out: IC50 (nM Paclitaxel)",> 1000 nM
same,IC50,"MES-SA/Dx5 cells [2]; Homo sapiens, MES-SA/Dx5, 48 h incubation, paclitaxel-equivalent concentration, read-out: IC50 (nM Paclitaxel)",> 1000 nM
same,IC50,"MES-SA/Dx5 cells [2]; Homo sapiens, resistant MES-SA/Dx5 cells, 12 hours and 48 hours, read-out: IC50 values",> 1000 nM
same,therapeutic activity,"MES-SA/Dx5 cells [2]; paclitaxel-resistant MES-SA/Dx5, 200 nM, 2 days",did not display any significant therapeutic activity
same,TUNEL staining (apoptosis),MES-SA/Dx5 cells [3],lower fraction of TUNEL-positive signals
same,dispersion in PBS,[4],severe aggregation
